The text below walks through data of patent US20050070510A1, “Substituted tetracycline compounds as synergistic antifungal agents” (Paratek Pharmaceuticals, Inc., priority 2001, published 2005).

This data set deals with COS-1 cells. Put plainly: In vitro mammalian cytotoxicity assay (Resazurin). For orientation: The colour change of resazurin is a common sign of viable cells or microbes.
Regarding `CN(C)c1cc(NC(=O)Nc2ccc([N+](=O)O)cc2)c(O)c2c1C[C@@]1(N)C[C@@]3(N)[C@H](N(C)C)C(O)=C(C(N)=O)C(=O)[C@@]3(C#N)C(O)=C1C2=O` [IC], the “In Vitro Cytotoxicity” value is on record as “* (toxicities greater than >25 μg/ml are represented by *)”.
As to `CN(C)[C@@H]1C(O)=C(C(N)=O)C(=O)[C@@]2(C#N)C(O)=C3C(=O)c4c(O)c(C(C)(C)C)cc(CCC(=O)c5cccnc5)c4C[C@@]3(N)C[C@@]12N` [ID], the “In Vitro Cytotoxicity” value is reported as “* (toxicities greater than >25 μg/ml are represented by *)”.
For `COc1ccc(NC(=O)Nc2cc(N(C)C)c3c(c2O)C(=O)C2=C(O)[C@]4(C#N)C(=O)C(C(N)=O)=C(O)[C@@H](N(C)C)[C@]4(N)C[C@]2(N)C3)cc1` [IE], the “In Vitro Cytotoxicity” value is given as “* (toxicities greater than >25 μg/ml are represented by *)”.
Regarding `CCCCC#Cc1ccc(O)c2c1C[C@@]1(N)C[C@@]3(N)[C@H](N(C)C)C(O)=C(C(N)=O)C(=O)[C@@]3(C#N)C(O)=C1C2=O` [IG], the “In Vitro Cytotoxicity” value is given as “** (toxicities less than 25 μg/mL are represented by **)”.
The entry for `CCCC/C(Cl)=C/c1ccc(O)c2c1C[C@@]1(N)C[C@@]3(N)[C@H](N(C)C)C(O)=C(C(N)=O)C(=O)[C@@]3(C#N)C(O)=C1C2=O` [IH] is “** (toxicities less than 25 μg/mL are represented by **)”.
For `CN(C)Cc1ccc(-c2cc(N(C)C)c3c(c2O)C(=O)C2=C(O)[C@]4(C#N)C(=O)C(C(N)=O)=C(O)[C@@H](N(C)C)[C@]4(N)C[C@]2(N)C3)cc1` [IJ], the “In Vitro Cytotoxicity” value is reported as “* (toxicities greater than >25 μg/ml are represented by *)”.
To `CN(C)c1cc(NC(=O)NC(=O)c2ccccc2)c(O)c2c1C[C@@]1(N)C[C@@]3(N)[C@H](N(C)C)C(O)=C(C(N)=O)C(=O)[C@@]3(C#N)C(O)=C1C2=O` [IK] belongs “* (toxicities greater than >25 μg/ml are represented by *)”.
Turning to `CN(C)c1cc(NC(=O)Nc2cc(C(F)(F)F)cc(C(F)(F)F)c2)c(O)c2c1C[C@@]1(N)C[C@@]3(N)[C@H](N(C)C)C(O)=C(C(N)=O)C(=O)[C@@]3(C#N)C(O)=C1C2=O` [IL], the “In Vitro Cytotoxicity” value was “** (toxicities less than 25 μg/mL are represented by **)”.
As to `COc1ccc(CN(C)C)cc1-c1ccc(O)c2c1C[C@@]1(N)C[C@@]3(N)[C@H](N(C)C)C(O)=C(C(N)=O)C(=O)[C@@]3(C#N)C(O)=C1C2=O` [IM], the “In Vitro Cytotoxicity” value was “* (toxicities greater than >25 μg/ml are represented by *)”.
On to `CN(C)[C@@H]1C(O)=C(C(N)=O)C(=O)[C@@]2(C#N)C(O)=C3C(=O)c4c(O)ccc(CCc5ccccc5)c4C[C@@]3(N)C[C@@]12N` [IN], for which the “In Vitro Cytotoxicity” value is listed as “** (toxicities less than 25 μg/mL are represented by **)”.
To `CN(C)c1cc(C#CCNS(C)(=O)=O)c(O)c2c1C[C@@]1(N)C[C@@]3(N)[C@H](N(C)C)C(O)=C(C(N)=O)C(=O)[C@@]3(C#N)C(O)=C1C2=O` [IP] belongs “* (toxicities greater than >25 μg/ml are represented by *)”; to `CN(C)[C@@H]1C(O)=C(C(N)=O)C(=O)[C@@]2(C#N)C(O)=C3C(=O)c4c(O)ccc(C#CCNS(C)(=O)=O)c4C[C@@]3(N)C[C@@]12N` [IQ], “* (toxicities greater than >25 μg/ml are represented by *)”.
For the compound `CCc1cc(F)c(O)c2c1C[C@@]1(N)C[C@@]3(N)[C@H](N(C)C)C(O)=C(C(N)=O)C(=O)[C@@]3(C#N)C(O)=C1C2=O` [IR], the “In Vitro Cytotoxicity” value is “** (toxicities less than 25 μg/mL are represented by **)”.
Take `CN(C)[C@@H]1C(O)=C(C(N)=O)C(=O)[C@@]2(C#N)C(O)=C3C(=O)c4c(O)ccc(-c5cccc(C(N)=O)c5)c4C[C@@]3(N)C[C@@]12N` [IS]: the “In Vitro Cytotoxicity” value is given as “* (toxicities greater than >25 μg/ml are represented by *)”.
Take `CC(=O)Nc1ccc(C#Cc2ccc(O)c3c2C[C@@]2(N)C[C@@]4(N)[C@H](N(C)C)C(O)=C(C(N)=O)C(=O)[C@@]4(C#N)C(O)=C2C3=O)cc1` [IU]: the “In Vitro Cytotoxicity” value was “* (toxicities greater than >25 μg/ml are represented by *)”.
For the compound `CN(C)[C@@H]1C(O)=C(C(N)=O)C(=O)[C@@]2(C#N)C(O)=C3C(=O)c4c(O)ccc(CCCNS(C)(=O)=O)c4C[C@@]3(N)C[C@@]12N` [IV], the “In Vitro Cytotoxicity” value was “* (toxicities greater than >25 μg/ml are represented by *)”.
The entry for `CC(O)CCc1ccc(O)c2c1C[C@@]1(N)C[C@@]3(N)[C@H](N(C)C)C(O)=C(C(N)=O)C(=O)[C@@]3(C#N)C(O)=C1C2=O` (some centres unmarked) [IW] is “* (toxicities greater than >25 μg/ml are represented by *)”; for `CN(C)[C@@H]1C(O)=C(C(N)=O)C(=O)[C@@]2(C#N)C(O)=C3C(=O)c4c(O)ccc(CCC5CCCCC5)c4C[C@@]3(N)C[C@@]12N` [IX] it is “** (toxicities less than 25 μg/mL are represented by **)”.
Consider `CCc1cc(CNC(=O)c2cccnc2)c(O)c2c1C[C@@]1(N)C[C@@]3(N)[C@H](N(C)C)C(O)=C(C(N)=O)C(=O)[C@@]3(C#N)C(O)=C1C2=O` [IY], for which the “In Vitro Cytotoxicity” value is “* (toxicities greater than >25 μg/ml are represented by *)”.
In the case of `CCc1cc(CN)c(O)c2c1C[C@@]1(N)C[C@@]3(N)[C@H](N(C)C)C(O)=C(C(N)=O)C(=O)[C@@]3(C#N)C(O)=C1C2=O` [IZ], the “In Vitro Cytotoxicity” value is recorded as “* (toxicities greater than >25 μg/ml are represented by *)”.
For the compound `CN(C)[C@@H]1C(O)=C(C(N)=O)C(=O)[C@@]2(C#N)C(O)=C3C(=O)c4c(ccc(/C=C\C(=O)NC(C)(C)C)c4O)[C@H](N)[C@@]3(N)[C@H](O)[C@@]12N` [JA], the “In Vitro Cytotoxicity” value is “* (toxicities greater than >25 μg/ml are represented by *)”.
For `CN(C)[C@@H]1C(O)=C(C(N)=O)C(=O)[C@@]2(C#N)C(O)=C3C(=O)c4c(O)ccc(C5CCCC5)c4C[C@@]3(N)C[C@@]12N` [JB], the “In Vitro Cytotoxicity” value is on record as “** (toxicities less than 25 μg/mL are represented by **)”.
Take `CN(C)[C@@H]1C(O)=C(C(N)=O)C(=O)[C@@]2(C#N)C(O)=C3C(=O)c4c(O)c(CNC(=O)c5cccnc5)cc(CCC5CCCCC5)c4C[C@@]3(N)C[C@@]12N` [JC]: the “In Vitro Cytotoxicity” value is on record as “** (toxicities less than 25 μg/mL are represented by **)”.
Take `CN(C)[C@@H]1C(O)=C(C(N)=O)C(=O)[C@@]2(C#N)C(O)=C3C(=O)c4c(O)ccc(/C=C/C(=O)OC(C)(C)C)c4C[C@@]3(N)C[C@@]12N` [JD]: the “In Vitro Cytotoxicity” value is given as “* (toxicities greater than >25 μg/ml are represented by *)”.
Take `CCCCCCc1ccc(O)c2c1C[C@@]1(N)C[C@@]3(N)[C@H](N(C)C)C(O)=C(C(N)=O)C(=O)[C@@]3(C#N)C(O)=C1C2=O` [JE]: the “In Vitro Cytotoxicity” value is “** (toxicities less than 25 μg/mL are represented by **)”.
For the compound `COc1cccc(C#Cc2cc(N(C)C)c3c(c2O)C(=O)C2=C(O)[C@]4(C#N)C(=O)C(C(N)=O)=C(O)[C@@H](N(C)C)[C@]4(N)C[C@]2(N)C3)c1` [JF], the “In Vitro Cytotoxicity” value is “** (toxicities less than 25 μg/mL are represented by **)”.
To `CN(C)c1cc(C#Cc2ccc(N)cc2)c(O)c2c1C[C@@]1(N)C[C@@]3(N)[C@H](N(C)C)C(O)=C(C(N)=O)C(=O)[C@@]3(C#N)C(O)=C1C2=O` [JG] belongs “* (toxicities greater than >25 μg/ml are represented by *)”.
Turning to `CN(C)c1cc(C#Cc2cccnc2)c(O)c2c1C[C@@]1(N)C[C@@]3(N)[C@H](N(C)C)C(O)=C(C(N)=O)C(=O)[C@@]3(C#N)C(O)=C1C2=O` [JH], the “In Vitro Cytotoxicity” value was “** (toxicities less than 25 μg/mL are represented by **)”.
With `COC(=O)C#Cc1cc(N(C)C)c2c(c1O)C(=O)C1=C(O)[C@]3(C#N)C(=O)C(C(N)=O)=C(O)[C@@H](N(C)C)[C@]3(N)C[C@]1(N)C2` [JI], the “In Vitro Cytotoxicity” value is listed as “* (toxicities greater than >25 μg/ml are represented by *)”.
